Laboratory results reported in patent US20080269173A1, “Composition for Stimulating Growth of Dermal Papilla Cells and Promoting Hair Follicle Growth Comprising Vitamin C Derivatives” (Trichogene Inc., priority 2005, published 2008).

Experiments:
[1] = aqueous solution, general culture conditions; cited from earlier work
[2] = test system: human anagen hair follicle; assay: In vitro growth of isolated human anagen hair follicles (organ culture, length measurement); format: cell-based; details: 0.05 mM and 0.25 mM, 9 days, Williams E medium; P<0.05
Description: Biopsy samples were obtained from a […] region of scalp of a patient with androgenic alopecia during the hair transplantation operation with their approval in the Kyungpook National University hospital. The hair follicles were isolated and incubated according to the known method (Philpott et al., J Cell Sci. 97:463-471, 1990).
The anagen hair follicles were isolated from the scalp under a stereoscopic binocular microscope. Upper one third of the isolated anagen hair follicles were cut out, and lower two third of them were incubated at 37° C. in a Williams E medium (Sigma, USA) under a 5% CO2 atmosphere. The hair follicles were incubated for 9 days in a medium including Asc 2-P, and then their length was measured using a stereoscopic microscope.

[3] = test system: dermal papilla cells; assay: RT-PCR gene expression (mRNA) in dermal papilla cells; format: cell-based, human; details: 0.25 mM, 5 days
Description: The dermal papilla cells were incubated for 5 days in a medium including 0.25 mM Asc 2-P, and then their RNA was isolated using a TRIzol reagent (Gibco-BRL, Grand Island, N.Y.). cDNA was synthesized from the RNA using a cDNA synthesis kit containing superscript II reverse transcriptase and random hexamer (Gibco-BRL). The cDNA was amplified with sets of gene-specific primers (Table 1).
Gene expression levels of IGF-1 (insulin like growth factor 1), HGF (hepatocyte growth factor), VEGF (vascular endothelial growth factor), KGF (keratinocyte growth factor), collagen I, collagen III, versican and alkaline phosphatase (ALP) were analyzed in the present invention.

[4] = test system: versican in the hair follicle; assay: Immunostaining of versican in hair follicle; format: cell-based, human; details: 0.1 mM and 1 mM, 5 days
Description: The hair follicles were incubated for 5 days in the media treated with 0.1 mM and 1 mM Asc 2-P, and then their immunostaining experiments were conducted against versican.

[5] = test system: osteoblast; details: Hata et al., 1988; cited from earlier work
[6] = test system: dermal papilla cells; assay: Growth of cultured dermal papilla cells (MTT method); format: cell-based, human; details: 0.25 mM, 5 days
Description: The dermal papilla was isolated from a bulb of the severed hair follicles under the binocular microscope, and then transferred into a tissue culture dish. The dermal papilla was cultured at 37° C. for 5 days under a 5% CO2 atmosphere in the DMEM medium supplemented with penicillin (100 U/ml), streptomycin (100 μg/ml) and 20% heat-inactivated fetal bovine serum (FBS, Hyclone, USA), and then subcultured in the same condition. The dermal papilla cells were kept in the DMEM including 10% FBS after the subculture. The secondary subcultured cells were used in the present invention.
The dermal papilla cells were incubated overnight at a density of 5,000 cells/well in a 96-well plate containing a DMEM medium supplemented with 10% FBS. The medium was then exchanged to the DMEMs including varied concentrations of Asc 2-P and incubated for 5 days, and then the cell number was measured using a MTT method.

[7] = test system: human dermal fibroblast; details: Hata et al., 1988; cited from earlier work

Structure (SMILES) | stability [1] | growth (length) of hair follicle [2] | HGF mRNA [3] | IGF-1 mRNA [3] | KGF mRNA [3] | VEGF mRNA [3] | alkaline phosphatase (ALP) mRNA [3] | collagen I mRNA [3] | collagen III mRNA [3] | versican mRNA [3] | expression of versican in the hair follicle (immunostaining) [4] | growth of osteoblast [5] | growth of dermal papilla cells (cell number, MTT) ([6]; 0.05 mM, 1 mM and 5 mM, P<0.05) | growth of dermal papilla cells relative to the control group ([6]; MTT) [times] | growth of human dermal fibroblast [7]
O=C1O[C@H]([C@@H](O)CO)C(O)=C1OP(=O)(O)O [Asc 2-P, L-ascorbic acid-2-phosphate magnesium] | more stable than the vitamin C | significantly grown | no effect | increased | no effect | no effect | increased | no effect | no effect | increased | increased | stimulates growth | significantly stimulated growth | 2.4 | stimulates growth
O=C1O[C@H]([C@@H](O)CO)C(O)=C1O [vitamin C, L-ascorbic acid] | rapidly oxidized and degraded |  |  |  |  |  |  |  |  |  |  | stimulates growth |  |  | stimulates growth
